Literature values as cited in patent publication US9011938B2, “Methods and formulations for treating chronic liver disease” (priority 2008, dated 2015).
Where a name gives a salt, the structure may show the parent alone.

How the values were obtained:
[1] = system: rats with fatty liver induced by a high-fat diet
[2] = system: tumor necrosis factor-alpha (TNF-α); conditions: subjects suffering from alcoholic hepatitis
[3] = system: mice induced with an immunological liver injury
[4] = system: HCV internal ribosome entry site (IRES); conditions: in vitro, dose-dependant, not competitive binding

COc1ccc2cc3[n+](cc2c1OC)CCc1cc2c(cc1-3)OCO2 [berberine hydrochloride]
hepatic fat degeneration [1]: attenuates

N[C@@H](CCC(=O)N[C@@H](CS)C(=O)NCC(=O)O)C(=O)O [glutathione, Glutathione]
TNF-α activity [2]: inhibits

C[C@@]12C[C@@]3(O)O[C@@H](O1)[C@]1(COC(=O)c4ccccc4)[C@H]3C[C@@]12O[C@@H]1O[C@H](CO)[C@@H](O)[C@H](O)[C@H]1O [paeoniflorin]
increase in TNF-alpha, lipopolysaccharide binding protein, and CD14 mRNA expression in mouse liver [3]: significantly decreased | serum ALT activities [3]: significantly decrease

cyanocobalamin [vitamin B12]
HCV IRES-dependent translation of a reporter gene [4]: inhibit
